Results taken from US7709443B2, “Cyclic peptide antitumor agents” (Northwestern University, priority 2003, dated 2010).
Values after ≈ are worked out from the molar mass of the structure shown. Like-named read-outs stand apart in the source and are kept apart here. Square brackets hold non-standard residues; d marks the D form. Peptide text beside a SMILES is read from it. Phe(4-Br) = N[C@@H](Cc1ccc(Br)cc1)C(=O)O; Phe(4-I) = N[C@@H](Cc1ccc(I)cc1)C(=O)O; NMeF = CN[C@@H](Cc1ccccc1)C(=O)O; Hica(2S) = CC(C)C[C@H](O)C(=O)O; NMeL = CN[C@@H](CC(C)C)C(=O)O; NMeV = CN[C@H](C(=O)O)C(C)C

Tests used:
[1] = tested on: HCT-116 (human colon carcinoma); assay: cells; conditions: for times more potent than sansalvamide A toward HCT-116: relative to sansalvamide A
Description: The HCT-116 human colon adenocarcinoma screen is a tissue culture first line assay to detect inherent cytotoxicity against malignant cancer cells. This strain is considered to be an “indicator strain” by many for the selection of inhibitors that target solid tumors. The assay is a calorimetric endpoint assay which can be produced in 96-well format trays. Data are acquired by plate reader and dose response curves are produced by computer analysis. […] This assay is run routinely as described below and would be understood in the art.
1. Media (1000 mL McCoy's 5A Medium, 114 mL Fetal Bovine Serum, 25 mL Hepes buffer solution (IM), 12.5 mL Penicillin-Streptomycin solution)
2. Cell line (HCT-116, human colon cancer cell line)
3. Indicator (MTS and PMS in DPBS)
5. Standard anticancer drug (etoposide (VP-16); stock is 4 mg/mL in DMSO
6. DPBS (without CaCl2 and MgCl2)
1. Remove medium from the cells and rinse with 10 mL sterile DPBS.
3. Allow to stand in hood for 1 minute.
4. Remove trypsin with sterile pipette.
5. Allow flask to stand in hood for 2-5 minutes.
6. Add 10 mL of media to flask and pipette up and down to gently break up cell clumps.
7. Count the number of cells using a hemacytometer.
8. Determine # of plates needed, and total volume of cell suspension (16 or 18 mL per plate).
9. Dilute cells to a final concentration of 2.5×10^4 cells/mL in a sterile flask.
10. Pour cell suspension into a sterile trough.
For Serial Dilution Plates
1. Add 175 μL to each well in the first row of a 96 well plate.
2. Add 150 μL to the rest of the wells in A1-A10 & A12.
3. In row 11 add 150 μL cell suspension to the first 6 wells and only media to the last two.
For Single Concentration Plates
1. Add 150 μL of sterile media to G11 & H11.
2. Add 150 μL of cell suspension to all other wells.
3. Add 25 μL more to well H1.
Incubate plates overnight at 37° C. & 5% CO2
1. Add 25 μL of test compounds @ 10 mg/mL to A1-A10, 25 μL of DMSO to A11 & 25 μL of etoposide (4 mg/mL) to A12.
2. Using a twelve channel pipette, mix well then remove 50 μL from the first row and transfer to the next row, repeat down the plate until row F, then remove tip # 11 and continue down plate discarding the last 50 μL.
3. Incubate plates for 72 h.
1. Add 20 μL of MTS/PMS solution to each well.
3. Read plates @490 nm on plate reader.

[2] = tested on: WM115 (Melanoma) human cancer cell line; conditions: three days
Description: (§1) Cells were plated at 5,000 cells per well in 24-well plates, treated for three days, then counted. Cell number was normalized to the number of cells in untreated control (DMSO) cells, also after three days.

[3] = tested on: PC-3 (Prostate) human cancer cell line; conditions: three days
Description: as §1

[4] = tested on: MDA-MB231 (Breast) human cancer cell line; conditions: three days
Description: as §1

Compound | IC50 ([1]; HCT-116 bioassay, Table 1) | Fold Induction Over DMSO control ([2]; WM115, 1 μM) | Fold Induction Over DMSO control ([2]; WM115, 10 μM) | Fold Induction Over DMSO control ([3]; PC-3, 1 μM) | Fold Induction Over DMSO control ([3]; PC-3, 10 μM) | Fold Induction Over DMSO control ([4]; MDA-MB231, 1 μM) | Fold Induction Over DMSO control ([4]; MDA-MB231, 10 μM) | times more potent than sansalvamide A toward HCT-116 [1] | IC50 ([1]; Homo sapiens, HCT-116)
CC(C)C[C@@H]1NC(=O)[C@H](C(C)C)NC(=O)[C@H](CC(C)C)OC(=O)[C@H](CC(C)C)NC(=O)[C@H](Cc2ccc(I)cc2)NC1=O (cyclo(L[Phe(4-I)]L[Hica(2S)]V)) | 11.3 mg/L (≈ 15.9 µM) |  |  |  |  |  |  |  | 
CC(C)C[C@@H]1NC(=O)[C@H](Cc2ccccc2)NC(=O)[C@H](CC(C)C)N(C)C(=O)[C@H](C(C)C)NC(=O)[C@H](CC(C)C)NC1=O [Compound 1h] (cyclo(FLLV[NMeL])) |  | 1.13 | 0.51 | 0.79 | 0.64 | 1.01 | 0.28 |  | 
CC(C)C[C@@H]1NC(=O)[C@H](Cc2ccc(Br)cc2)NC(=O)[C@H](CC(C)C)NC(=O)[C@H](C(C)C)NC(=O)[C@H](CC(C)C)NC1=O [Compound 1a] (cyclo([Phe(4-Br)]LLVL)) |  | 0.85 | 0.99 | 0.94 | 0.74 | 0.95 | 0.60 |  | 
CC(C)C[C@@H]1NC(=O)[C@H](C(C)C)NC(=O)[C@H](CC(C)C)NC(=O)[C@H](CC(C)C)N(C)C(=O)[C@H](Cc2ccccc2)NC1=O [Compound 1b] (cyclo(F[NMeL]LVL)) |  | 1.02 | 3.02 | 1.24 | 0.81 | 0.87 | 0.71 |  | 
CC(C)C[C@@H]1NC(=O)[C@H](Cc2ccc(Br)cc2)NC(=O)[C@H](CC(C)C)NC(=O)[C@H](C(C)C)N(C)C(=O)[C@H](CC(C)C)NC1=O [Compound 1g] (cyclo([Phe(4-Br)]LL[NMeV]L)) |  | 1.02 | 0.84 | 0.74 | 0.67 | 0.88 | 0.31 |  | 
CC(C)C[C@@H]1NC(=O)[C@H](C(C)C)NC(=O)[C@H](CC(C)C)N(C)C(=O)[C@H](CC(C)C)NC(=O)[C@H](Cc2ccc(Br)cc2)NC1=O [Compound 1e] (cyclo([Phe(4-Br)]L[NMeL]VL)) |  | 0.89 | 0.95 | 0.62 | 0.82 | 1.20 | 0.82 |  | 
CC(C)C[C@@H]1NC(=O)[C@H](C(C)C)NC(=O)[C@H](CC(C)C)N(C)C(=O)[C@H](CC(C)C)NC(=O)[C@H](Cc2ccc(Br)cc2)NC1=O [drawing 9] (cyclo([Phe(4-Br)]L[NMeL]VL)) | 0.11 mg/L (≈ 0.162 µM) |  |  |  |  |  |  | ~100 times | 
CC(C)C[C@@H]1NC(=O)[C@H](Cc2ccccc2)NC(=O)[C@H](CC(C)C)NC(=O)[C@H](C(C)C)N(C)C(=O)[C@H](CC(C)C)NC1=O [Compound 1f] (cyclo(FLL[NMeV]L)) |  | 1.00 | 1.06 | 0.92 | 0.74 | 1.04 | 0.26 |  | 
CC(C)C[C@@H]1NC(=O)[C@H](CC(C)C)NC(=O)[C@H](Cc2ccccc2)N(C)C(=O)[C@H](CC(C)C)NC(=O)[C@H](C(C)C)NC1=O [Compound 1j] (cyclo([NMeF]LLVL)) |  | 1.75 | 0.60 | 0.86 | 0.8 | 0.78 | 0.82 |  | 
CC(C)C[C@@H]1NC(=O)[C@H](C(C)C)NC(=O)[C@H](CC(C)C)N(C)C(=O)[C@H](CC(C)C)NC(=O)[C@H](Cc2ccccc2)NC1=O [Compound 1d] (cyclo(FL[NMeL]VL)) |  | 0.87 | 0.98 | 0.63 | 0.52 | 1.09 | 0.91 |  | 
COc1cc([C@@H]2c3cc4c(cc3[C@@H](O[C@@H]3O[C@@H]5CO[C@@H](C)O[C@H]5[C@H](O)[C@H]3O)[C@H]3COC(=O)[C@H]23)OCO4)cc(OC)c1O [etoposide, reference compound] |  |  |  |  |  |  |  |  | 1.5 mg/L (≈ 2.55 µM)
CC(C)C[C@@H]1NC(=O)[C@H](Cc2ccccc2)NC(=O)[C@H](CC(C)C)NC(=O)[C@H](C(C)C)NC(=O)[C@H](CC(C)C)NC1=O [Compound 1, sansalvamide A peptide] (cyclo(FLLVL)) | 0.98 mg/L (≈ 1.67 µM) | 0.92 | 0.56 | 1.03 | 0.90 | 0.91 | 0.69 | about 10 times | 
CC(C)C[C@@H]1NC(=O)[C@H](C(C)C)NC(=O)[C@H](CC(C)C)OC(=O)[C@H](CC(C)C)NC(=O)[C@H](Cc2ccc(Br)cc2)NC1=O (cyclo(L[Phe(4-Br)]L[Hica(2S)]V)) | 4.5 mg/L (≈ 6.76 µM) |  |  |  |  |  |  |  | 
